Data as given in patent US20250144039A1, “COMPOSITIONS COMPRISING SURFACE MODIFIED GLOBULAR NANO-PARTICLES” (LANDA LABS (2012) LTD., priority 2022, published 2025).

Experiments:
[1] = test system: skin of pigs' ears; test: Ex vivo penetration of composition into skin of pigs' ears (fluorescent marker histology); type: in vitro ADME; conditions: Nile red marker; pig ear skin, 20 hours at 32° C.
Description: The distribution of nano-elements of the present compositions in various skin layers was tested ex vivo by applying core-shell and core-multi-shells (including a second shell forming active agent) nano-elements onto the skin of pigs' ears, the cores of the tested compositions including a fluorescent dye (Nile red) allowing histological monitoring.
The following test and control compositions were prepared and used as set in Table 9.
Tested compositions (2) and (3) were prepared by adding 2 mg of Nile red fluorescent marker during the preparation of the CSSC/fatty amine premix, as described in Example 6. All tested compositions were stored in closed containers at room temperature until they were used.
The compositions were tested on three freshly harvested pig ears, collected on the same day, and kept fresh and cooled till use. The ears were washed with excess saline solution and wiped dry. They were then immobilized for the duration of the study by taping them onto a glass surface, their inner side facing down. Each ear was marked on its outer side with 6 circles having a diameter of about 1 cm. […]
The above tissue sections were evaluated by an expert for the presence and intensity of the marker using a fluorescence microscope at objective magnification of ×10 and ×20.

[2] = Zeta potential measurement (Malvern Zetasizer Nano ZS); type: physicochemical; conditions: 0.1 g dispersed in 9.9 g of distilled water
Description: • Oven: DFO-240, by MRC, Israel • Thermo-rheometer: Thermo Scientific (Germany) Haake Mars III, with a C20/1° spindle, a gap of 0.052 mm, and a shear rate of 10 sec^−1 • Sonicator: VCX 750, by Sonics & Materials, USA • Dynamic Light Scattering and Zeta Potential measurement: Malvern Zetasizer Nano ZS, Malvern Instruments Ltd., UK • Conductivity meter: Eutech CON 700 by Thermo Fisher Scientific, USA • CryoTEM: Talos 200C by Thermo Fisher Scientific, USA, with a Lacey grid • Fluorescence microscope: BX60 microscope, equipped with a digital camera model DP73, by Olympus, Japan
8 g of double distilled water were placed in a 20 ml glass vial. 2 g of the nano-dispersion ND1 obtained in Example 2 were added, and the contents of the vial were shaken by hand for about 10 seconds until a homogeneous mixture was obtained (referred to as charged ND1 or cND1). Zeta potential of the mixture was measured by Malvern Zetasizer Nano ZS and found to be −14.7 mV. Unless otherwise stated, all measurements made with this instrument (e.g., zeta potential and particle size distribution) were performed on samples diluted 1:100 in double distilled water. All pH measurements reported in this and following examples were made at least using a pH test strip adapted to the pH range of relevance, and confirmed in some cases by using a suitable pH meter.

| Zeta potential of active agent alone [2] | Compound | penetration into skin layers (fluorescence microscopy) [1] |
| --- | --- | --- |
| – | CCN(CC)c1ccc2nc3c4ccccc4c(=O)cc-3oc2c1 [Nile red, 9-(diethylamino)-5H-benzo[a]phenoxazin-5-one] | No penetration of the fluorescent marker was observed |
| −17 mV | Sodium hyaluronate [LMW HA] | – |
